In PMC4321555, “Differential inhibition of Arabidopsis superoxide dismutases by peroxynitrite-mediated tyrosine nitration” (Journal of Experimental Botany, 2014):
Positions count from the first letter of the chain named.

Experiments:
Assay type in all cases: biochemical
[1] = target: T1, CSD3 (Cu/ZnSOD3; peroxisomal copper/zinc SOD3) (Arabidopsis thaliana, UniProt Q9FK60); test: SOD activity after peroxynitrite treatment (cytochrome c reduction); conditions: covalent (tyrosine nitration, Tyr115); 20 min, RT, dark; potassium phosphate pH 8.0
T1 sequence (Q9FK60 1-164): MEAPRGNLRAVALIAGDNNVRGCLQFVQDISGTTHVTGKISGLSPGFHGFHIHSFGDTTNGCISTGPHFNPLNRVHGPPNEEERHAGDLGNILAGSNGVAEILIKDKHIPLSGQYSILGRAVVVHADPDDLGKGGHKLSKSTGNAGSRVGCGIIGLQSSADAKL

[2] = target: T2, FSD3 (FeSOD3; chloroplastic iron SOD3) (Arabidopsis thaliana, UniProt Q9FMX0); test: as above; conditions: covalent (tyrosine nitration); 20 min, RT, dark; potassium phosphate pH 8.0
T2 sequence (Q9FMX0 1-263 limits assumed): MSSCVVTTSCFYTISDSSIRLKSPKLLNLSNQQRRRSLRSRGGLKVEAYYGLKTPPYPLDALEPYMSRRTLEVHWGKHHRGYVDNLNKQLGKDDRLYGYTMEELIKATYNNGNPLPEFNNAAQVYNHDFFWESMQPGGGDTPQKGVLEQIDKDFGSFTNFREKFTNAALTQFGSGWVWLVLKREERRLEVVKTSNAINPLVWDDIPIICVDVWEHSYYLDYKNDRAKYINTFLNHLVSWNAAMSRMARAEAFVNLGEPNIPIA

[3] = target: T3, MSD1 (MnSOD; manganese SOD1) (Arabidopsis thaliana, UniProt O81235, Y63F); test: SOD activity after peroxynitrite treatment; conditions: covalent (tyrosine nitration); 20 min, RT, dark; potassium phosphate pH 8.0
T3 sequence (O81235 1-231 Y63F): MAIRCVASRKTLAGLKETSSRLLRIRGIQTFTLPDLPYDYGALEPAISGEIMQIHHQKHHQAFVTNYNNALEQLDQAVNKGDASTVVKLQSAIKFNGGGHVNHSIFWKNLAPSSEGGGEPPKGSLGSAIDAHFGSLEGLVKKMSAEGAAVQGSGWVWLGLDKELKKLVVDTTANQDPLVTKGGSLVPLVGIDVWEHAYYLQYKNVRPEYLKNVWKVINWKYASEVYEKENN

[4] = target: T4, MSD1 (MnSOD; manganese SOD1) (Arabidopsis thaliana, UniProt O81235); test: SOD activity after peroxynitrite treatment (cytochrome c reduction); conditions: covalent (tyrosine nitration, mainly Tyr63); 20 min, RT, dark; potassium phosphate pH 8.0
T4 sequence (O81235 1-231): T3 sequence (O81235 1-231 Y63F) with F63Y

CSD1 (Cu/ZnSOD1) = target: T5, CSD1 (Cu/ZnSOD1) (Arabidopsis thaliana, UniProt P24704); test: NBT-formazan SOD assay (xanthine/xanthine oxidase); conditions: superoxide generated by xanthine oxidase; 570 nm
T5 sequence (P24704 1-152): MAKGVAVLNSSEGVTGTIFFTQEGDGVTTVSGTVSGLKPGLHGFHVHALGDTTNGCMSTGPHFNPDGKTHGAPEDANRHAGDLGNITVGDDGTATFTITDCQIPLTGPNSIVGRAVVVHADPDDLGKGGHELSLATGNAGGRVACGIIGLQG

[5] = target: T1, CSD3 (Cu/ZnSOD3; peroxisomal copper/zinc SOD3); test: NBT-formazan SOD assay (xanthine/xanthine oxidase); conditions: superoxide generated by xanthine oxidase; 570 nm
[6] = target: T4, MSD1 (MnSOD; manganese SOD1); test: NBT-formazan SOD assay (xanthine/xanthine oxidase); conditions: superoxide generated by xanthine oxidase; 570 nm
FSD1 = target: T6, FSD1 (Arabidopsis thaliana, UniProt P21276); test: NBT-formazan SOD assay (xanthine/xanthine oxidase); conditions: superoxide generated by xanthine oxidase; 570 nm
T6 sequence (P21276 1-212): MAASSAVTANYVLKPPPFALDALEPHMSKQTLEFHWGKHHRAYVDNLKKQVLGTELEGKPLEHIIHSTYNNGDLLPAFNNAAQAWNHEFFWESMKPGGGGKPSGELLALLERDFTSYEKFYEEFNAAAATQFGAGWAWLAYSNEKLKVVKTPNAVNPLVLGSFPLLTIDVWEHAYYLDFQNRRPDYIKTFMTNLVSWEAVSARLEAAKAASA

FSD2 = target: T7, FSD2 (Arabidopsis thaliana, UniProt Q9LU64); test: NBT-formazan SOD assay (xanthine/xanthine oxidase); conditions: superoxide generated by xanthine oxidase; 570 nm
T7 sequence (Q9LU64 1-305 limits assumed): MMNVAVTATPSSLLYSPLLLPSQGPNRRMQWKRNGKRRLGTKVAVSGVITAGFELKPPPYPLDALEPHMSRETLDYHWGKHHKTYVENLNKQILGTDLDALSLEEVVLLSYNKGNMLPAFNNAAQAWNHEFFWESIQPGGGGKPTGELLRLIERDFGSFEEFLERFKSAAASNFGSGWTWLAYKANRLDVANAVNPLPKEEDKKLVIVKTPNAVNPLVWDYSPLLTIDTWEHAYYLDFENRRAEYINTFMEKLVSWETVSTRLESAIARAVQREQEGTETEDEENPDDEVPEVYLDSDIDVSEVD

[7] = target: T2, FSD3 (FeSOD3; chloroplastic iron SOD3); test: NBT-formazan SOD assay (xanthine/xanthine oxidase); conditions: superoxide generated by xanthine oxidase; 570 nm
CSD2 (Cu/ZnSOD2) = target: T8, CSD2 (Cu/ZnSOD2) (Arabidopsis thaliana, UniProt O78310); test: NBT-formazan SOD assay (xanthine/xanthine oxidase); conditions: superoxide generated by xanthine oxidase; 570 nm
T8 sequence (O78310 1-216 limits assumed): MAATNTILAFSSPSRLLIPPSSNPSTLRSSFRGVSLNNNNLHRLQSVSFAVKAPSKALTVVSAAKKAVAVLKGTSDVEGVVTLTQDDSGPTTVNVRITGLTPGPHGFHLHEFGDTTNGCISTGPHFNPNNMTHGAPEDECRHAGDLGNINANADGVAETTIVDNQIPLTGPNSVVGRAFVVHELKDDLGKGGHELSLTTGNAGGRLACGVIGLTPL

| Compound | % remaining activity at 500 μM [1] [%] | % remaining activity at 500 μM [2] [%] | % inhibition at 500 μM [3] [%] | % inhibition at 500 μM [4] | NBT-formazan SOD assay (xanthine/xanthine oxidase) (CSD1 (Cu/ZnSOD1)) | NBT-formazan SOD assay (xanthine/xanthine oxidase) [5] | NBT-formazan SOD assay (xanthine/xanthine oxidase) [6] | NBT-formazan SOD assay (xanthine/xanthine oxidase) (FSD1) | NBT-formazan SOD assay (xanthine/xanthine oxidase) (FSD2) | NBT-formazan SOD assay (xanthine/xanthine oxidase) [7] | NBT-formazan SOD assay (xanthine/xanthine oxidase) (CSD2 (Cu/ZnSOD2)) |
| --- | --- | --- | --- | --- | --- | --- | --- | --- | --- | --- | --- |
| O=NOO [peroxynitrite] | 65 | 65 | 30 | ~ 90% | – | – | – | – | – | – | – |
| [O]O [superoxide] | – | – | – | – | The activity of the purified, recombinant SODs was determined using the nitroblue tetrazolium (NBT)–formazan method | The activity of the purified, recombinant SODs was determined using the nitroblue tetrazolium (NBT)–formazan method | The activity of the purified, recombinant SODs was determined using the nitroblue tetrazolium (NBT)–formazan method | The activity of the purified, recombinant SODs was determined using the nitroblue tetrazolium (NBT)–formazan method | The activity of the purified, recombinant SODs was determined using the nitroblue tetrazolium (NBT)–formazan method | The activity of the purified, recombinant SODs was determined using the nitroblue tetrazolium (NBT)–formazan method | The activity of the purified, recombinant SODs was determined using the nitroblue tetrazolium (NBT)–formazan method |
